We go through 18 compounds from patent US10449208B2, “Antiviral prodrugs of tenofovir” (Merck Sharp & Dohme Corp., priority 2016, dated 2019).

Like-named read-outs stand apart in the source and are kept apart here.

The subject of one data set is HIV-1 (H9/IIIB strain). As to the kind of experiment: Multiple round HIV-1 infection assay (Viking assay) in MT4-GFP cells. The data set is classed as cell-based. The note with it: MT4-GFP cells infected with HIV-1 H9/IIIB, inhibition of reproductive ratio R0. On the procedure:
Assessing Antiviral Potency in a Multiple Round HIV-1 Infection Assay (Viking Assay)
The antiviral activity of the tenofovir prodrugs of the Examples herein was assessed in an assay that measures the rate of replication of HIV in cell culture, termed the Viking assay (Viral KINetics in Green cells) and performed as follows. HIV-1 replication was monitored using MT4-gag-GFP clone D3 (hereafter designated MT4-GFP), which are MT-4 cells modified to harbor a GFP reporter gene, the expression of which is dependent on the HIV-1 expressed proteins tat and rev. Productive infection of an MT4-GFP cell with HIV-1 results in GFP expression approximately 24 h post-infection. MT4-GFP cells were maintained at 37° C./5% CO2/90% relative humidity in RPMI 1640 supplemented with 10% fetal bovine serum, 100 μ/ml penicillin/streptomycin, and 400 μg/ml G418 to maintain the reporter gene. For infections, MT4-GFP cells were placed in the same medium lacking G418 and infected overnight with HIV-1 (H9/IIIB strain) virus at an approximate multiplicity of infection of 0.01 in the same incubation conditions. Cells were then washed and re-suspended in either RPMI 1640 supplemented with 10% or 50% normal human serum (NFIS) at 1.6×10^5 cells/mL (10% NHS or 50% NHS, respectively). Compound plates were prepared by dispensing compounds dissolved in DMSO into wells of 384 well poly-D -lysine-coated plates (0.2 μl/well) using an ECHO acoustic dispenser. Each compound was tested in a 10-point serial 3-fold dilution (typical final concentrations: 8.4 μM-0.42 nM). Controls included no inhibitor (DMSO only) and a combination of three antiviral agents (efavirenz, indinavir, an in-house integrase strand transfer inhibitor at final concentrations of 4 μM each). Cells were added (50 μL/well) to compound plates and the infected cells were maintained at 37° C./5% CO2/90% relative humidity.
infected cells were quantified at two time points, ˜48 h and ˜72 h post -infection, by counting the number of green cells in each well using an Acumen eX3 scanner. The increase in the number of green cells over ˜24 h period gives the reproductive ratio, R0, which is typically 5-15 and has been shown experimentally to be in logarithmic phase (data not shown). Inhibition of R0 is calculated for each well, and IC50s determined by non-linear 4-parameter curve fitting.

A short description of data set [1]: Prodrug stability assay in bio-relevant media (FaSSIF with Pancreatin, simulated gastrointestinal tract conditions). The note with it: % parent prodrug remaining at 5 h vs 0 h, 37° C., 0.5 mg/mL Pancreatin in FaSSIF, HPLC area ratio. The data set is classed as in vitro ADME. The procedure: Prodrug Stability Assay in Bio-Relevant Media
The following assay was employed to evaluate the stability of the prodrugs in simulated gastrointestinal tract conditions. Preparation of fasted state simulated intestinal fluid (FaSSIF) using Phares SIF Powder was carried out according to protocols from Phare Drug Delivery AG (Baselland, Switzerland). For sample preparation, 10 μL stock solutions (10 mM) of prodrug substance in DMSO was added to 990 μL of 0.5 mg/mL Pancreatin solution (Fisher CAS#8049-47-6) in FaSSIF. Two samples were prepared for each compound at initial. If the sample was clear solution at the beginning, ran one sample directly as initial by HPLC; if the sample was not clear at starting, diluted the sample by 100% ACN. Put the other sample under 37° C. and observed the sample at 5 h time-point. At 5 h time point, if the sample was clear solution then performed HPLC analysis directly; if it was not clear solution, diluted the sample by 100% ACN and assayed by HPLC. All the samples were vortexed for 3 min and observed before injection. For the diluted samples, the area will be multiplied by a factor when data analysis. The analysis was carried out with an Agilent 1100 series HPLC with autosampler. The column was usually a Poroshell 120 EC -C18, 4.6×50 mm, 2.7 μm. The flow rate was 1.8 mL/min, and the injection volume was 5 or 10 μL. UV detection was in the range 210-400 nm. The mobile phase consisted of solvent A (water plus 10 mM tetrabutylammonium bromide) and solvent B (acetonitrile) with a gradient of 90% solvent A at 0 min changing to 95% solvent B over 6 min, maintained for 1.5 min, then reverting to 90% solvent A over 1.6 min. The area of the parent in prodrug at 5h time point was divided by the area of the parent in prodrug at 0 h time point, to generate the % claimed parent ratio, which are summarized in Table 2 for GI Tract stability.

Setting [2] is: Human immunodeficiency virus 1, IIIB, 10% normal human serum, read-out: Viking, IC50 (10% NHS).
The mark [3] stands for this setting: Human immunodeficiency virus 1, IIIB, 50% normal human serum, read-out: Viking, IC50 (50% NHS).
Where [4] appears, read: 10% normal human serum, read-out: Viking, IC50 (10% NHS).
[5] abbreviates: 50% normal human serum, read-out: Viking, IC50 (50% NHS).

With `CCCCOC(=O)C(C)(C)NP(=O)(CO[C@H](C)Cn1cnc2c(N)ncnc21)O[C@H](C)C(=O)OC(C)C` (stereo partly drawn) [Example 26, Butyl 2-((((((R)-1-(6-amino-9H-purin-9-yl)propan-2-yl)oxy)methyl)(((R)-1-isopropoxy-1-oxopropan-2-yl)oxy)phosphoryl)amino)-2-methylpropanoate], the results for the IC50 in the data set with HIV-1 (H9/IIIB strain) (setting [2]) and with HIV-1 (H9/IIIB strain) (setting [3]) were 3.1 nM and 8.74 nM, respectively. The “GI Tract stability” value in data set [1] is on record as 9.01%.
Turning to `CCCCCOC(=O)C(C)(C)NP(=O)(CO[C@H](C)Cn1cnc2c(N)ncnc21)OCC(=O)OC(C)C` (single isomer, unassigned) [Example 4A], the results for the IC50 in the data set with HIV-1 (H9/IIIB strain) (setting [2]) and in the data set on HIV-1 (H9/IIIB strain) (setting [3]) were 13.9 nM and 86.5 nM, respectively. The “GI Tract stability” value in data set [1] is recorded as 99.07%.
As to `CCCCCOC(=O)C(C)(C)NP(=O)(CO[C@H](C)Cn1cnc2c(N)ncnc21)OCC(=O)OC(C)C` (single isomer, unassigned) [Example 4B], the IC50 came to 19.4 nM with HIV-1 (H9/IIIB strain) (setting [4]) and 158 nM with HIV-1 (H9/IIIB strain) (setting [5]). Further, in data set [1], the “GI Tract stability” value is on record as 98.87%.
Consider `CC(C)OC(=O)[C@@H](C)OP(=O)(CO[C@H](C)Cn1cnc2c(N)ncnc21)NC(C)(C)C(=O)OC(C)C` (stereo partly drawn) [Example 20, Isopropyl 2-((((((R)-1-(6-amino-9H-purin-9-yl)propan-2-yl)oxy)methyl)(((R)-1-isopropoxy-1-oxopropan-2-yl)oxy)phosphoryl)amino)-2-methylpropanoate], for which the figures for the IC50 in the data set with HIV-1 (H9/IIIB strain) (setting [2]) and in the data set on HIV-1 (H9/IIIB strain) (setting [3]) were 21 nM and 97 nM, respectively. In addition, in data set [1], the “GI Tract stability” value is listed as 7.19%.
Take `CCCCCCOC(=O)C(C)(C)NP(=O)(CO[C@H](C)Cn1cnc2c(N)ncnc21)O[C@@H](C)C(=O)OC(C)C` (single isomer, unassigned) [Example 7B]: the values for the concentration for half-maximal inhibition (IC50) in the data set with HIV-1 (H9/IIIB strain) (setting [4]) and in the data set on HIV-1 (H9/IIIB strain) (setting [5]) were 0.37 nM and 1.01 nM, respectively. In data set [1], the “GI Tract stability” value was 76.64%.
The like results for `CC(C)OC(=O)COP(=O)(CO[C@H](C)Cn1cnc2c(N)ncnc21)NC(C)(C)C(=O)OC1CCC1` (single isomer, unassigned) [Example 17B] were, in that order, 6.7 nM, 18.4 nM and 99.32%.
On to `CC(C)OC(=O)COP(=O)(CO[C@H](C)Cn1cnc2c(N)ncnc21)NC1(C(=O)OC(C)C)CCCC1` (stereo partly drawn) [Example 45, Isopropyl 1-((((((R)-1-(6-amino-9H-purin-9-yl)propan-2-yl)oxy)methyl)(2-isopropoxy-2-oxoethoxy)phosphoryl)amino) cyclopentane-1-carboxylate], for which the IC50 in the data set on HIV-1 (H9/IIIB strain) (setting [2]) worked out at 15.6 nM; in the data set with HIV-1 (H9/IIIB strain) (setting [3]), 62.6 nM. Further, the “GI Tract stability” value in data set [1] is given as 99.44%.
`CCCCCCOC(=O)C(C)(C)NP(=O)(CO[C@H](C)Cn1cnc2c(N)ncnc21)O[C@H](C)C(=O)OC(C)C` (single isomer, unassigned) [Example 9B]: the IC50 in the data set on HIV-1 (H9/IIIB strain) (setting [4]) came out at 1 nM; in the data set with HIV-1 (H9/IIIB strain) (setting [5]) it was 2.78 nM. In addition, the “GI Tract stability” value in data set [1] was 6.16%.
As to `CC(C)OC(=O)C(C)(C)NP(=O)(CO[C@H](C)Cn1cnc2c(N)ncnc21)O[C@@H](C)C(=O)OC1CCCC1` (single isomer, unassigned) [Example 13A], the values for the IC50 in the data set with HIV-1 (H9/IIIB strain) (setting [2]) and with HIV-1 (H9/IIIB strain) (setting [3]) were 6.17 nM and 51.1 nM, respectively. Also, the “GI Tract stability” value in data set [1] is on record as 70.30%.
As to `CCCCOC(=O)C(C)(C)NP(=O)(CO[C@H](C)Cn1cnc2c(N)ncnc21)OCC(=O)OC(C)C` (stereo partly drawn) [Example 24, Butyl 2-((((((R)-1-(6-amino-9H-purin-9-yl)propan-2-yl)oxy)methyl)(2-isopropoxy-2-oxoethoxy)phosphoryl)amino)-2-methylpropanoate], the IC50 with HIV-1 (H9/IIIB strain) (setting [2]) was 4.78 nM; in the data set on HIV-1 (H9/IIIB strain) (setting [3]), 27.8 nM. Moreover, in data set [1], the “GI Tract stability” value was 98.30%.
As for `CCCOC(=O)C(C)(C)NP(=O)(CO[C@H](C)Cn1cnc2c(N)ncnc21)OCC(=O)OC(C)C` (stereo partly drawn) [Example 21, Propyl 2-((((((R)-1-(6-amino-9H-purin-9-yl)propan-2-yl)oxy)methyl)(2-isopropoxy-2-oxoethoxy)phosphoryl)amino)-2-methylpropanoate], the results for the IC50 in the data set with HIV-1 (H9/IIIB strain) (setting [2]) and in the data set on HIV-1 (H9/IIIB strain) (setting [3]) were 6.15 nM and 12 nM, respectively. Besides, in data set [1], the “GI Tract stability” value was 99.36%.
Regarding `CC(C)OC(=O)[C@H](C)OP(=O)(CO[C@H](C)Cn1cnc2c(N)ncnc21)NC(C)(C)C(=O)OC1CCCC1` (single isomer, unassigned) [Example 18A], the figures for the IC50 in the data set with HIV-1 (H9/IIIB strain) (setting [3]) and in the data set on HIV-1 (H9/IIIB strain) (setting [4]) were 16.5 nM and 6.59 nM, respectively. For the same compound, the “GI Tract stability” value in data set [1] is given as 76.31%.
Turning to `CCOC(=O)C(C)(C)NP(=O)(CO[C@H](C)Cn1cnc2c(N)ncnc21)O[C@H](C)C(=O)OC(C)C` (stereo partly drawn) [Example 29, Ethyl 2-((((((R)-1-(6-amino-9H-purin-9-yl)propan-2-yl)oxy)methyl)(((R)-1-isopropoxy-1-oxopropan-2-yl)oxy)phosphoryl)amino)-2-methylpropanoate], the IC50 was 9.22 nM in the data set on HIV-1 (H9/IIIB strain) (setting [2]) and 17.2 nM with HIV-1 (H9/IIIB strain) (setting [3]).
Taken in the same sequence, the figures for `CCCCCCOC(=O)C(C)(C)NP(=O)(CO[C@H](C)Cn1cnc2c(N)ncnc21)OC(C)(C)C(=O)OC(C)C` (stereo partly drawn) [Example 44, Hexyl 2-((((((R)-1-(6-amino-9H-purin-9-yl)propan-2-yl)oxy)methyl)((1-isopropoxy-2-methyl-1-oxopropan-2-yl)oxy)phosphoryl)amino)-2-methylpropanoate] were 1.42 nM and 1.81 nM.
The like results for `CCCCCCOC(=O)C(C)(C)NP(=O)(CO[C@H](C)Cn1cnc2c(N)ncnc21)OCC(=O)OC1CCCC1` (stereo partly drawn) [Example 35] were, in that order, 3.83 nM and 14 nM.
The like results for `CC(C)OC(=O)[C@H](C)OP(=O)(CO[C@H](C)Cn1cnc2c(N)ncnc21)NC1(C(=O)OC(C)C)CCCC1` (stereo partly drawn) [Example 48, Isopropyl 1-((((((R)-1-(6-amino-9H-purin-9-yl)propan-2-yl)oxy)methyl)(((S)-1-isopropoxy-1-oxopropan-2-yl)oxy)phosphoryl)amino)cyclo-pentane-1-carboxylate] were, in that order, 13.3 nM and 37.3 nM.
In the case of `CCCCCCOC(=O)C(C)(C)NP(=O)(CO[C@H](C)Cn1cnc2c(N)ncnc21)O[C@@H](C)C(=O)OCC` (stereo partly drawn) [Example 43, Hexyl 2-((((((R)-1-(6-amino-9H-purin-9-yl)propan-2-yl)oxy)methyl)(((S)-1-ethoxy-1-oxopropan-2-yl)oxy)phosphoryl)amino)-2-methylpropanoate], the IC50 with HIV-1 (H9/IIIB strain) (setting [2]) turned out to be 6.15 nM; in the data set on HIV-1 (H9/IIIB strain) (setting [3]), 20.4 nM.
For `C[C@H](Cn1cnc2c(N)ncnc21)OCP(=O)(NC(C)(C)C(=O)OC1CCCC1)O[C@@H](C)C(=O)OC1CCCC1` (single isomer, unassigned) [Example 5A], the IC50 was 5.71 nM with HIV-1 (H9/IIIB strain) (setting [2]) and 45 nM with HIV-1 (H9/IIIB strain) (setting [3]).

Usually IC50 stands for the concentration needed to halve the response being measured.
